Test results as given in patent US20070105910A1, “Medicinal composition” (priority 2003, published 2007).
Structures can show the parent of a compound that is named as a salt.

Test: Repeated oral administration test for 10 days using rats: blood hemoglobin (Hb)
Format: in vivo
Settings: SD rats; after 10 days oral administration; pioglitazone hydrochloride 240 mg/kg/day, benfotiamine 100 mg/kg/day where combined
Method: After termination of the administration, the blood was collected from the rats and the hemoglobin (Hb) value was determined. Then, the rats were killed, and their hearts were weighed (relative weight).

Blood Hb conc. after administration: 13.6 g/dL
Compound: CCc1ccc(CCOc2ccc(CC3SC(=O)NC3=O)cc2)nc1 (stereo not shown) [Pioglitazone HCl, pioglitazone hydrochloride]
